Reference: ChEMBL document CHEMBL1201862, “PubChem BioAssay data set” (2004)
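A five-concentration, 48-hour dose response in 96-well plates underlies each endpoint, interpolated linearly between surrounding concentrations. GI50 is the concentration that inhibits growth by half.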 Active and inactive are the calls of the source. No stated cut-off is given here; in the data, active = GI50 up to about 1.1 µM and inactive = higher.

Experiments:
Test in all cases: NCI tumour cell line growth inhibition, 48 h
SK-MEL-2 = tested on: SK-MEL-2
M14 = tested on: M14
Hs-578T = tested on: Hs-578T
HCT-15 = tested on: HCT-15
SW-620 = tested on: SW-620
A549 = tested on: A549
K562 = tested on: K562
HCT-116 = tested on: HCT-116
NCI-H460 = tested on: NCI-H460
SF-268 = tested on: SF-268
OVCAR-8 = tested on: OVCAR-8
DMS-114 = tested on: DMS-114
RXF 393 = tested on: RXF 393
KM12 = tested on: KM12
HOP-62 = tested on: HOP-62
A498 = tested on: A498
MCF7 = tested on: MCF7
UACC-62 = tested on: UACC-62
NCI/ADR-RES = tested on: NCI/ADR-RES
MDA-N = tested on: MDA-N

| Compound | GI50 (SK-MEL-2) | GI50 (M14) | GI50 (Hs-578T) | GI50 (HCT-15) | GI50 (SW-620) | GI50 (A549) | GI50 (K562) | GI50 (HCT-116) | GI50 (NCI-H460) | GI50 (SF-268) | GI50 (OVCAR-8) | GI50 (DMS-114) | GI50 (RXF 393) | GI50 (KM12) | GI50 (HOP-62) | GI50 (A498) | GI50 (MCF7) | GI50 (UACC-62) | GI50 (NCI/ADR-RES) | GI50 (MDA-N) |
| --- | --- | --- | --- | --- | --- | --- | --- | --- | --- | --- | --- | --- | --- | --- | --- | --- | --- | --- | --- | --- |
| CCOC(=O)c1c(C)c(C)n2c1NC(=O)C2 | > 100 µM (inactive) | > 53.7 µM (inactive) | 20.3 µM (inactive) | > 61.1 µM | > 54 µM (inactive) | > 82.6 µM (inactive) | > 100 µM (inactive) | 36.6 µM (inactive) | > 53.1 µM (inactive) | > 42.8 µM (inactive) | > 70.3 µM (inactive) | > 100 µM (inactive) | > 40.4 µM (inactive) | > 100 µM (inactive) | > 66.5 µM (inactive) | > 100 µM (inactive) | 25.2 µM (inactive) | > 60.3 µM (inactive) | 20.4 µM (inactive) | > 100 µM (inactive) |
| O=C1N=C2N=C(c3ccc(Cl)cc3)N(c3ccc(Cl)cc3)N2Sc2ccccc21 | > 100 µM (inactive) | > 100 µM (inactive) | – | > 100 µM | > 100 µM (inactive) | 39.8 µM (inactive) | > 100 µM (inactive) | > 100 µM (inactive) | 81.3 µM (inactive) | > 100 µM (inactive) | > 100 µM (inactive) | > 100 µM (inactive) | 32.8 µM (inactive) | 83.9 µM (inactive) | 36.1 µM (inactive) | > 100 µM (inactive) | – | > 100 µM (inactive) | – | – |
| CC(=O)Oc1ccc(CO)cc1OC(C)=O | > 100 µM (inactive) | > 100 µM (inactive) | – | > 100 µM | > 100 µM (inactive) | > 100 µM (inactive) | 57.8 µM (inactive) | > 100 µM (inactive) | > 100 µM (inactive) | > 100 µM (inactive) | > 100 µM (inactive) | 40.3 µM (inactive) | > 100 µM (inactive) | > 100 µM (inactive) | > 100 µM (inactive) | > 100 µM (inactive) | – | > 100 µM (inactive) | – | – |
| CC(N)Cc1ccc(F)cc1 (stereo not given) | > 100 µM (inactive) | > 100 µM (inactive) | – | > 100 µM | > 100 µM (inactive) | > 100 µM (inactive) | > 100 µM (inactive) | > 100 µM (inactive) | > 100 µM (inactive) | > 100 µM (inactive) | > 100 µM (inactive) | > 100 µM (inactive) | > 100 µM (inactive) | > 100 µM (inactive) | > 100 µM (inactive) | > 100 µM (inactive) | – | > 100 µM (inactive) | – | – |
| CC1(C2CCC3(C)C(C2)C3Sc2ccccc2)OCCO1 (stereo not given) | 16.8 µM (inactive) | 37 µM (inactive) | – | 31.9 µM | 21.5 µM (inactive) | 24.2 µM (inactive) | 17.1 µM (inactive) | 15.5 µM (inactive) | 20.4 µM (inactive) | 34.8 µM (inactive) | 31.8 µM (inactive) | 21.8 µM (inactive) | 15 µM (inactive) | 25.6 µM (inactive) | 20.2 µM (inactive) | 18.8 µM (inactive) | – | 19.4 µM (inactive) | – | – |
| Cc1ccc(C2=Nc3ccccc3NC(=O)C2)cc1 | > 100 µM (inactive) | > 100 µM (inactive) | – | > 100 µM | 27.7 µM (inactive) | > 100 µM (inactive) | > 100 µM (inactive) | > 100 µM (inactive) | > 100 µM (inactive) | > 100 µM (inactive) | 79.8 µM (inactive) | 91.2 µM (inactive) | > 100 µM (inactive) | > 100 µM (inactive) | > 100 µM (inactive) | > 100 µM (inactive) | – | > 100 µM (inactive) | – | – |
| CC1CC(c2ccc([N+](=O)[O-])cc2)=Nc2ccccc2[S+]1[O-] (stereo not given) | 44.5 µM (inactive) | 18.1 µM (inactive) | – | 14.6 µM | 15.3 µM (inactive) | 20 µM (inactive) | 17.5 µM (inactive) | 2.11 µM (inactive) | 17.1 µM (inactive) | 20.1 µM (inactive) | 15.5 µM (inactive) | 18.4 µM (inactive) | 11.1 µM (inactive) | 13 µM (inactive) | 26.1 µM (inactive) | 18.2 µM (inactive) | – | 17.7 µM (inactive) | – | – |
| CC1(C)C(=O)OC(n2cc(F)c(=O)[nH]c2=O)C1=O (stereo not given) | > 100 µM (inactive) | > 100 µM (inactive) | – | > 100 µM | > 100 µM (inactive) | 66.5 µM (inactive) | > 100 µM (inactive) | 89.5 µM (inactive) | 55.1 µM (inactive) | > 100 µM (inactive) | > 100 µM (inactive) | > 100 µM (inactive) | > 100 µM (inactive) | > 100 µM (inactive) | 65.9 µM (inactive) | > 100 µM (inactive) | – | > 100 µM (inactive) | – | – |
| N#CC1(Cc2ccccc2)CCCCN1C(=O)c1ccccc1 (stereo not given) | 1.42 µM (inactive) | > 100 µM (inactive) | – | > 100 µM | > 100 µM (inactive) | > 100 µM (inactive) | > 100 µM (inactive) | > 100 µM (inactive) | > 100 µM (inactive) | > 100 µM (inactive) | > 100 µM (inactive) | > 100 µM (inactive) | > 100 µM (inactive) | > 100 µM (inactive) | > 100 µM (inactive) | > 100 µM (inactive) | – | > 100 µM (inactive) | – | – |
| CC1OC(n2cc(F)c(=O)[nH]c2=O)C=CC1=O (stereo not given) | 15.1 µM (inactive) | 17.5 µM (inactive) | – | 20.3 µM | 18.8 µM (inactive) | > 100 µM (inactive) | 31 µM (inactive) | 16.3 µM (inactive) | 21.6 µM (inactive) | 19.6 µM (inactive) | 20.7 µM (inactive) | 18 µM (inactive) | 15.5 µM (inactive) | 17.7 µM (inactive) | 38.8 µM (inactive) | 16.7 µM (inactive) | – | 17.7 µM (inactive) | – | – |
| COC1CC(CC2CCC(C)C(C(C)C(=O)O)O2)OC2(OC(C)(C3CCC(C)(C4OC(C5OC(O)(CO)C(C)CC5C)CC4C)O3)CC2C)C1C (stereo not given) | 0.646 µM (active) | 1.8 µM (inactive) | 0.91 µM (active) | 1.85 µM | 1.52 µM (inactive) | 0.111 µM (active) | 0.0502 µM (active) | 0.759 µM (active) | 0.402 µM (active) | 1.88 µM (inactive) | 1.38 µM (inactive) | < 0.0151 µM (active) | < 0.0109 µM (active) | 0.773 µM (active) | 0.522 µM (active) | 0.22 µM (active) | 0.15 µM (active) | 1.61 µM (inactive) | – | 0.757 µM (active) |
| CCOC(=O)CP(=S)(S)c1ccccc1 (stereo not given) | > 100 µM (inactive) | – | – | – | > 100 µM (inactive) | > 100 µM (inactive) | > 100 µM (inactive) | – | > 100 µM (inactive) | > 100 µM (inactive) | > 100 µM (inactive) | > 100 µM (inactive) | > 100 µM (inactive) | > 100 µM (inactive) | > 100 µM (inactive) | > 100 µM (inactive) | – | > 100 µM (inactive) | – | – |
| COc1cc([C@@H]2c3cc4c(cc3C[C@H]3COC(=O)[C@@H]32)OCO4)cc(OC)c1OC [DESOXYPODOPHYLLOTOXIN] | 0.0074 µM (active) | 0.004 µM (active) | 0.00204 µM (active) | – | 0.0091 µM (active) | 0.00885 µM (active) | 0.0074 µM (active) | – | – | 0.00843 µM (active) | 0.00721 µM (active) | 0.00698 µM (active) | – | – | 0.0127 µM (active) | 0.00695 µM (active) | 0.00875 µM (active) | 0.00912 µM (active) | – | 0.00222 µM (active) |
